Assay results as given in patent publication US9132140B2, “Boronic acid derivatives and therapeutic uses thereof” (Rempex Pharmaceuticals, Inc., priority 2013, dated 2015).

Experiments:
KP1098 (IMP-26 TEM SHV) = assay type: cell-based, Klebsiella pneumoniae
Source text: (§1) Several strains simultaneously expressing both class A and class B carbapenemases, which were constructed using conjugation, were also included in the panel.

KPM1123 (KPC-2 TEM SHV) = assay type: cell-based, Klebsiella pneumoniae
Source text: as §1

KP1014 (Vim-1, TEM, SHV) = assay type: cell-based, Klebsiella pneumoniae
Source text: as §1

KP1065 (VIM-1, SHV-11) = assay type: cell-based, Klebsiella pneumoniae
Source text: as §1

KPM1108 (NDM, KPC) = assay type: cell-based, Klebsiella pneumoniae
Source text: as §1

KP1059 (VIM-1, SHV-11) = assay type: cell-based, Klebsiella pneumoniae
Source text: as §1

[1] = test system: KP1081 (NDM-1, TEM-1, SHV-11, CMY-6, CTX-M-15); assay type: cell-based, Klebsiella pneumoniae
Source text: as §1

KPM1107 (NDM, KPC) = assay type: cell-based, Klebsiella pneumoniae
Source text: as §1

KPM1122 (NDM, VIM) = assay type: cell-based, Klebsiella pneumoniae
Source text: as §1

[2] = test system: KPM1346 (NDM-1 TEM SHV CTX-M-15 CMY); assay type: cell-based, Klebsiella pneumoniae
Source text: as §1

[3] = test system: KPM1347 (NDM-1 SHV CTX-M-15); assay type: cell-based, Klebsiella pneumoniae
Source text: as §1

KPM1345 (VIM-1 SHV) = assay type: cell-based, Klebsiella pneumoniae
Source text: as §1

KPM1099 (NDM, KPC) = assay type: cell-based, Klebsiella pneumoniae
Source text: as §1

KP1004 (KPC TEM SHV) = assay type: cell-based, Klebsiella pneumoniae
Source text: as §1

KPM1344 (VIM-1) = assay type: cell-based, Klebsiella pneumoniae
Source text: as §1

KP1061 (KPC TEM SHV) = assay type: cell-based, Klebsiella pneumoniae
Source text: as §1

NDM-1 = NDM-1 (Klebsiella pneumoniae, UniProt C7C422); assay: biochemical; conditions: substrate imipenem 100 μM
Sequence of NDM-1 (C7C422 29-270, looked up, species assumed): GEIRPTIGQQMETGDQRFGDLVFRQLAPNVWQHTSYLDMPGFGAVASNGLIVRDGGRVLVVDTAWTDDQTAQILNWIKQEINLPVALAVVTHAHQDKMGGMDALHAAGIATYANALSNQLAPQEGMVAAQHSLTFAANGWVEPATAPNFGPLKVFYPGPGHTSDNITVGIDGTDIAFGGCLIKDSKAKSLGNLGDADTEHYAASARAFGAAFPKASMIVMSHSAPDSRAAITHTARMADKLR

Compound: Nn1cnnc1S[C@H]1Cc2cccc(C(=O)O)c2OB1O [Compound 14, (R)-3-(4-amino-4H-1,2,4-triazol-3-ylthio)-2-hydroxy-3,4-dihydro-2H-benzo[e][1,2]oxaborinine-8-carboxylic acid]
- Imipenem + 14 MIC (KP1098 (IMP-26 TEM SHV)): Y (key: X: MIC of less than 1 μg/mL; Y: MIC of 1 μg/mL to 10 μg/mL; Z: MIC of greater than 10 μg/mL)
- Meropenem + 14 MIC (KP1098 (IMP-26 TEM SHV)): Z (key: X: MIC of less than 1 μg/mL; Y: MIC of 1 μg/mL to 10 μg/mL; Z: MIC of greater than 10 μg/mL)
- Imipenem + 14 MIC (KPM1123 (KPC-2 TEM SHV)): X (key: X: MIC of less than 1 μg/mL; Y: MIC of 1 μg/mL to 10 μg/mL; Z: MIC of greater than 10 μg/mL)
- Meropenem + 14 MIC (KPM1123 (KPC-2 TEM SHV)): X (key: X: MIC of less than 1 μg/mL; Y: MIC of 1 μg/mL to 10 μg/mL; Z: MIC of greater than 10 μg/mL)
- Imipenem + 14 MIC (KP1014 (Vim-1, TEM, SHV)): X (key: X: MIC of less than 1 μg/mL; Y: MIC of 1 μg/mL to 10 μg/mL; Z: MIC of greater than 10 μg/mL)
- Meropenem + 14 MIC (KP1014 (Vim-1, TEM, SHV)): X (key: X: MIC of less than 1 μg/mL; Y: MIC of 1 μg/mL to 10 μg/mL; Z: MIC of greater than 10 μg/mL)
- Imipenem + 14 MIC (KP1065 (VIM-1, SHV-11)): X (key: X: MIC of less than 1 μg/mL; Y: MIC of 1 μg/mL to 10 μg/mL; Z: MIC of greater than 10 μg/mL)
- Meropenem + 14 MIC (KP1065 (VIM-1, SHV-11)): Z (key: X: MIC of less than 1 μg/mL; Y: MIC of 1 μg/mL to 10 μg/mL; Z: MIC of greater than 10 μg/mL)
- Imipenem + 14 MIC (KPM1108 (NDM, KPC)): Y (key: X: MIC of less than 1 μg/mL; Y: MIC of 1 μg/mL to 10 μg/mL; Z: MIC of greater than 10 μg/mL)
- Meropenem + 14 MIC (KPM1108 (NDM, KPC)): Z (key: X: MIC of less than 1 μg/mL; Y: MIC of 1 μg/mL to 10 μg/mL; Z: MIC of greater than 10 μg/mL)
- Imipenem + 14 MIC (KP1059 (VIM-1, SHV-11)): Y (key: X: MIC of less than 1 μg/mL; Y: MIC of 1 μg/mL to 10 μg/mL; Z: MIC of greater than 10 μg/mL)
- Meropenem + 14 MIC (KP1059 (VIM-1, SHV-11)): Y (key: X: MIC of less than 1 μg/mL; Y: MIC of 1 μg/mL to 10 μg/mL; Z: MIC of greater than 10 μg/mL)
- Imipenem + 14 MIC [1]: X (key: X: MIC of less than 1 μg/mL; Y: MIC of 1 μg/mL to 10 μg/mL; Z: MIC of greater than 10 μg/mL)
- Meropenem + 14 MIC [1]: X (key: X: MIC of less than 1 μg/mL; Y: MIC of 1 μg/mL to 10 μg/mL; Z: MIC of greater than 10 μg/mL)
- Imipenem + 14 MIC (KPM1107 (NDM, KPC)): X (key: X: MIC of less than 1 μg/mL; Y: MIC of 1 μg/mL to 10 μg/mL; Z: MIC of greater than 10 μg/mL)
- Meropenem + 14 MIC (KPM1107 (NDM, KPC)): X (key: X: MIC of less than 1 μg/mL; Y: MIC of 1 μg/mL to 10 μg/mL; Z: MIC of greater than 10 μg/mL)
- Imipenem + 14 MIC (KPM1122 (NDM, VIM)): Y (key: X: MIC of less than 1 μg/mL; Y: MIC of 1 μg/mL to 10 μg/mL; Z: MIC of greater than 10 μg/mL)
- Meropenem + 14 MIC (KPM1122 (NDM, VIM)): Y (key: X: MIC of less than 1 μg/mL; Y: MIC of 1 μg/mL to 10 μg/mL; Z: MIC of greater than 10 μg/mL)
- Imipenem + 14 MIC [2]: Y (key: X: MIC of less than 1 μg/mL; Y: MIC of 1 μg/mL to 10 μg/mL; Z: MIC of greater than 10 μg/mL)
- Meropenem + 14 MIC [2]: Z (key: X: MIC of less than 1 μg/mL; Y: MIC of 1 μg/mL to 10 μg/mL; Z: MIC of greater than 10 μg/mL)
- Imipenem + 14 MIC [3]: X (key: X: MIC of less than 1 μg/mL; Y: MIC of 1 μg/mL to 10 μg/mL; Z: MIC of greater than 10 μg/mL)
- Meropenem + 14 MIC [3]: X (key: X: MIC of less than 1 μg/mL; Y: MIC of 1 μg/mL to 10 μg/mL; Z: MIC of greater than 10 μg/mL)
- Imipenem + 14 MIC (KPM1345 (VIM-1 SHV)): X (key: X: MIC of less than 1 μg/mL; Y: MIC of 1 μg/mL to 10 μg/mL; Z: MIC of greater than 10 μg/mL)
- Meropenem + 14 MIC (KPM1345 (VIM-1 SHV)): X (key: X: MIC of less than 1 μg/mL; Y: MIC of 1 μg/mL to 10 μg/mL; Z: MIC of greater than 10 μg/mL)
- Imipenem + 14 MIC (KPM1099 (NDM, KPC)): Y (key: X: MIC of less than 1 μg/mL; Y: MIC of 1 μg/mL to 10 μg/mL; Z: MIC of greater than 10 μg/mL)
- Meropenem + 14 MIC (KPM1099 (NDM, KPC)): Y (key: X: MIC of less than 1 μg/mL; Y: MIC of 1 μg/mL to 10 μg/mL; Z: MIC of greater than 10 μg/mL)
- Imipenem + 14 MIC (KP1004 (KPC TEM SHV)): X (key: X: MIC of less than 1 μg/mL; Y: MIC of 1 μg/mL to 10 μg/mL; Z: MIC of greater than 10 μg/mL)
- Meropenem + 14 MIC (KP1004 (KPC TEM SHV)): X (key: X: MIC of less than 1 μg/mL; Y: MIC of 1 μg/mL to 10 μg/mL; Z: MIC of greater than 10 μg/mL)
- Imipenem + 14 MIC (KPM1344 (VIM-1)): X (key: X: MIC of less than 1 μg/mL; Y: MIC of 1 μg/mL to 10 μg/mL; Z: MIC of greater than 10 μg/mL)
- Meropenem + 14 MIC (KPM1344 (VIM-1)): Y (key: X: MIC of less than 1 μg/mL; Y: MIC of 1 μg/mL to 10 μg/mL; Z: MIC of greater than 10 μg/mL)
- Imipenem + 14 MIC (KP1061 (KPC TEM SHV)): X (key: X: MIC of less than 1 μg/mL; Y: MIC of 1 μg/mL to 10 μg/mL; Z: MIC of greater than 10 μg/mL)
- Meropenem + 14 MIC (KP1061 (KPC TEM SHV)): X (key: X: MIC of less than 1 μg/mL; Y: MIC of 1 μg/mL to 10 μg/mL; Z: MIC of greater than 10 μg/mL)
- Ki (NDM-1): 10 to 100 nM
